Source: patent US10765114B2, “4-amino-6-(pyridyl and 2-substitutedphenyl)-picolinates and 6-amino-2-(pyridyl and 2-substitutedphenyl)-pyrimidine-4-carboxylates and their use as herbicides” (Dow AgroSciences LLC, priority 2013, dated 2020)

Legend:
Test in all cases: Pre-Emergent Test I
Format in all cases: in vivo
Settings in all cases: 3.8 kg ai/ha, preemergence
[1] = tested on: AVEFA: wild oats (Avena fatua)
Procedure: (§1) Pre-Emergent Test I Seeds of test species were planted into round plastic pots (5-inch diameter) containing sandy loam soil. After planting, all pots were sub-irrigated 16 h prior to compound application. Compounds were dissolved in a 97:3 v/v mixture of acetone and DMSO and diluted to the appropriate concentration in a final application solution containing water, acetone, isopropanol, DMSO and Agri-dex (crop oil concentrate) in a 59:23:15:1.0:1.5 v/v ratio and 0.02% w/v (weight/volume) of Triton X-155 to obtain the spray solution containing the highest application rate. Additional application rates were obtained by serial dilution of the high rate solution with the above application solution Formulated compound (2.7 mL) was pipetted evenly over the soil surface followed by incorporation with water (15 mL). Following treatment, pots were returned to the greenhouse for the duration of the experiment. The greenhouse was programmed for an approximate 15 h photoperiod which was maintained at about 23-29° C. during the day and 22-28° C. during the night. Nutrients and water were added on a regular basis through surface irrigation and supplemental lighting was provided with overhead metal halide 1000-Watt lamps as necessary. Herbicidal effect ratings were obtained 14 days after treatment. All evaluations were made relative to appropriate controls on a scale of 0 to 100 where 0 represents no herbicidal effect and 100 represents plant death or lack of emergence from the soil and presented in Table A. Some of the compounds tested, application rates employed, plant species tested, and results are given in Table 4.

[2] = tested on: IPOSS (IPOHE: ivyleaf morningglory (Ipomoea hederecea))
Procedure: as §1

[3] = tested on: SETFA: giant foxtail (Setaria faberi)
Procedure: as §1

[4] = tested on: HELAN: sunflower (Helianthus annuus)
Procedure: as §1

[5] = tested on: AMARE: redroot pigwseed (Amaranthus retroflexus)
Procedure: as §1

[6] = tested on: ECHSS (ECHCG: barnyardgrass (Echinochloa crus-galli))
Procedure: as §1

## COC(=O)c1nc(-c2ccc(Cl)nc2F)cc(N)c1Cl [Compound 17, methyl 4-amino-5,6′-dichloro-2′-fluoro-[2,3′-bipyridine]-6-carboxylate]
[1]
  Visual Growth Reduction (%) 14 Days After Application, AVEFA: G (0-29)
[2]
  Visual Growth Reduction (%) 14 Days After Application, IPOSS: A (95-100)
[3]
  Visual Growth Reduction (%) 14 Days After Application, SETFA: G (0-29)
[4]
  Visual Growth Reduction (%) 14 Days After Application, HELAN: A (95-100)
[5]
  Visual Growth Reduction (%) 14 Days After Application, AMARE: A (95-100)
[6]
  Visual Growth Reduction (%) 14 Days After Application, ECHSS: F (30-44)
